# According to US3952108A, “Scopolamine derivatives for treating ulcers and spasms” (Istituto de Angeli S.p.A., priority 1972, dated 1976):
# Experiments:
# [1] = test system: rabbit choledochoduodenal junction; assay: Spasmolytic activity "in vivo" on rabbit choledochoduodenal junction stimulated by neostigmine; conditions: 10 mcg/Kg i.v.; neostigmine 60 mcg/Kg i.v.; activity of scopolamine bromobutylate equal to 1
# Description: Spasmolytic activity "in vivo" on rabbit choledochoduodenal junction stimulated by neostigmine (60 mcg/Kg i.v.), after i.v. administration of the compound under examination, according to Luoma P., Acta Pharmacol. e Toxicol., 29, suppl. 1, 5-55 (1971).
# (§1) The above experiments have been carried out in comparison with scopolamine bromobutylate as a reference. The results are shown in the following table and are expressed on the basis of the activity of scopolamine bromobutylate being equal to 1.
# [2] = test system: Shay ulcer in rats; assay: Action on Shay ulcer in rats by intraduodenal route; format: in vivo, rat; conditions: 100 mg/Kg i.d., activity of scopolamine bromobutylate equal to 1
# Description: Action on Shay ulcer in rats by intraduodenal route according to Shay H., Komarov S. A., Fels S. S., Meranze D., Gruenstein M. and Siplet H., Gastroenterology, 5, 43-61 (1945).
# as §1
# [3] = test system: gastric secretion in rats; assay: Action on gastric secretion in rats after intraduodenal administration; format: in vivo, rat; conditions: 40 mg/Kg i.d., activity of scopolamine bromobutylate equal to 1
# Description: Action on gastric secretion in rats after intraduodenal administration according to Birnbaum G., Medicina Psicosomatica, 13, 1-4 (1968).
# as §1
# [4] = Overall evaluation of the spasmolytic and anti-ulcer tests; conditions: versus scopolamine bromobutylate
# Description: The properties of the new compounds may be illustrated by the results of the following experiments.
# as §1
SMILES,"% increase of flux, relative to scopolamine bromobutylate = 1 [1]","% of animals protected from ulcer, relative to scopolamine bromobutylate = 1 [2]","inhibition % of the gastric juice, relative to scopolamine bromobutylate = 1 [3]","Activity compared with the reference compound, taking into account the relevant toxicities [4]"
"C[N+]1(CCC2CC2)[C@@H]2C[C@H](OC(=O)[C@H](CO)c3ccccc3)C[C@H]1[C@@H]1O[C@@H]12 (stereo partly drawn) [DA-3236, scopolamine-N-(cyclopropyl-ethyl)-bromide]",0.9,2,1.1,–
"C[N+]1(CC2CC2)[C@@H]2C[C@H](OC(=O)[C@H](CO)c3ccccc3)C[C@H]1[C@@H]1O[C@@H]12 (stereo partly drawn) [DA-3177, scopolamine-N-(cyclopropyl-methyl)-bromide]",0.9,1.5,1,higher activities than the reference compound
"CCCC[N+]1(C)[C@@H]2C[C@@H](OC(=O)[C@H](CO)c3ccccc3)C[C@H]1[C@@H]1O[C@@H]12 (stereo partly drawn) [Scopolamine bromobutylate, scopolamine bromobutylate, reference compound]",1,1,1,–
"CC1CC1C[N+]1(C)[C@@H]2C[C@H](OC(=O)[C@H](CO)c3ccccc3)C[C@H]1[C@@H]1O[C@@H]12 (stereo partly drawn) [DA-3235, Scopolamine-N-(2-methyl-cyclopropyl-methyl)-bromide]",0.8,2,0.8,higher activities than the reference compound
"C[N+]1(CC2CCC2)[C@@H]2C[C@H](OC(=O)[C@H](CO)c3ccccc3)C[C@H]1[C@@H]1O[C@@H]12 (stereo partly drawn) [DA-3237, Scopolamine-N-(cyclobutyl-methyl)-bromide]",1.2,2,1.2,higher activities than the reference compound
"C[N+]1(CC2CO2)[C@@H]2C[C@H](OC(=O)[C@H](CO)c3ccccc3)C[C@H]1[C@@H]1O[C@@H]12 (stereo partly drawn) [DA-3245, scopolamine-N-(2,3-epoxypropyl)-bromide]",0.4,1.5,1.4,–
